For 17 molecules, IC50 results are on record in patent US20220016115A1, “USP19 INHIBITORS FOR USE IN THERAPY” (ALMAC DISCOVERY LIMITED, priority 2018, published 2022).

The target in this assay is T1, USP19 (Homo sapiens, UniProt O94966).
T1 sequence (O94966 1-1318): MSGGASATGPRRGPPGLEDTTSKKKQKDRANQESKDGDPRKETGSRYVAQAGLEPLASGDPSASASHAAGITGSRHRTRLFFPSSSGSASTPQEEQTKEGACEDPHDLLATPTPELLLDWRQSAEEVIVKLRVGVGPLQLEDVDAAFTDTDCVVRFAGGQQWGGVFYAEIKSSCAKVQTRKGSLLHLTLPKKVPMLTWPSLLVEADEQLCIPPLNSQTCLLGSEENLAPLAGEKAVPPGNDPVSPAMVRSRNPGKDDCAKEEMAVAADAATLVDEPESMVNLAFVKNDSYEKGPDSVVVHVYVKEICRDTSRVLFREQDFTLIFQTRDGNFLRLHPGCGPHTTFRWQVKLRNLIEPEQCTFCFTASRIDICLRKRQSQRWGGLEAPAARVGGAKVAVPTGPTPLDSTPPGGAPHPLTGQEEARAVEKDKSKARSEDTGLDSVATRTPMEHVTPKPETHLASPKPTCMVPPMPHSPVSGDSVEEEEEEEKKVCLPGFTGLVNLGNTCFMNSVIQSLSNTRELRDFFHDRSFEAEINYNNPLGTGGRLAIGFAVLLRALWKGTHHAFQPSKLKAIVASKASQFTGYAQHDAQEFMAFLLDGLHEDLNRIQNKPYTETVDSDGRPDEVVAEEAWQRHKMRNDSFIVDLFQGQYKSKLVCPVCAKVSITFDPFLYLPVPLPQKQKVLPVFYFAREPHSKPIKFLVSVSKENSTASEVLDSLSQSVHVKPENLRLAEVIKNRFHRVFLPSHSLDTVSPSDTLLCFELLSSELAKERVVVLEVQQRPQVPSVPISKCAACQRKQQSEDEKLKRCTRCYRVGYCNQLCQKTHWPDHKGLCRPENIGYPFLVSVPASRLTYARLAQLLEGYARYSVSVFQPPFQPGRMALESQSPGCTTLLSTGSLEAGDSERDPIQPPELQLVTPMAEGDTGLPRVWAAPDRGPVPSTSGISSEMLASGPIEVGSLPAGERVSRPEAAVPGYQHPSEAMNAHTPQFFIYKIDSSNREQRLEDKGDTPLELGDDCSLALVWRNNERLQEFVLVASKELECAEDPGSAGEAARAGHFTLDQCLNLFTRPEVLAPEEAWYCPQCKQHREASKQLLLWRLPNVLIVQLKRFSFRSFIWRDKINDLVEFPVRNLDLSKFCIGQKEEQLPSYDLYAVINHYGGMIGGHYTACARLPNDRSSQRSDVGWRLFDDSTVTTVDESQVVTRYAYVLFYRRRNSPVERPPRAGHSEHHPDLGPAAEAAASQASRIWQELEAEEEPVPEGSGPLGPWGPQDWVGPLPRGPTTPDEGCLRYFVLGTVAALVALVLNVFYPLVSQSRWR
The assay can be described thus: USP19 fluorescence polarisation (FP) homogeneous assay. More on the design: Full-length USP19 was purchased from Boston Biochem (E-576); purchased Boston Biochem E-576. The format is biochemical. The note with it: Ubiquitin-Lys-TAMRA substrate, full-length USP19 2.5 nM, average of at least two duplicate experiments. How it is done:
Unless otherwise stated, all other reagents were purchased from Sigma. Enzymatic reactions were conducted in black flat bottom polystyrene 384-well plates (Nunc) and 30 μL total volume. […] Inhibitors were stored as 10 mM DMSO stocks in an inert environment (low humidity, dark, low oxygen, room temperature) using the Storage Pod System and serial dilutions were prepared in buffer just prior to the assay (from 200 μM to 2 μM, 8-18 data point curve). Following incubation at RT for 30 min, the enzymatic reactions were initiated by dispensing the Ub substrate (500 nM, 10 μL). FP was measured every 15 min over a period of 90 min (within the linear range of the assay) using a Synergy 4 plate reader (BioTek) exciting at 530 nm and measuring the amount of parallel and perpendicular light at 575 nm. The FP signal was subsequently normalised to the no compound control.

The term IC50 denotes the concentration at which inhibition is half-maximal.

For the molecule `C[C@H](CC1CC1)C(=O)N1CCC(O)(Cn2cc(C(=O)N(C)C)c(-c3ccccc3)cc2=O)C2(CCCC2)C1` (stereo partly drawn) [Example 149, 1-((7-((R)-3-Cyclopropyl-2-methylpropanoyl)-10-hydroxy-7-azaspiro[4.5]decan-10-yl)methyl)-N,N-dimethyl-6-oxo-4-phenyl-1,6-dihydropyridine-3-carboxamide], the IC50 was under 500 nM.
With `CN(C)C(=O)c1cn(C[C@@]2(O)CCN(C(=O)[C@H](CO)CC3CCCCC3)CC2(C)C)c(=O)cc1-c1ccccc1` [Example 153, 1-(((R)-1-((S)-3-Cyclohexyl-2-(hydroxymethyl)propanoyl)-4-hydroxy-3,3-dimethylpiperidin-4-yl)methyl)-N,N-dimethyl-6-oxo-4-phenyl-1,6-dihydropyridine-3-carboxamide], the IC50 is 5000 to 50000 nM.
Take `C[C@H](CC1CCCCC1)C(=O)N1CC[C@@](O)(Cn2cc(C(=O)O)c(-c3ccccc3)cc2=O)C2(CCCC2)C1` [Example 253, 1-(((S)-7-((R)-3-Cyclohexyl-2-methylpropanoyl)-10-hydroxy-7-azaspiro[4.5]decan-10-yl)methyl)-6-oxo-4-phenyl-1,6-dihydropyridine-3-carboxylic acid]: the IC50 is under 500 nM.
Under `CN(C)C(=O)c1cn(C[C@]2(O)CCN(C(=O)[C@H](CO)CC3CCCCC3)CC2(C)C)c(=O)cc1-c1ccccc1` [Example 152, 1-(((S)-1-((S)-3-Cyclohexyl-2-(hydroxymethyl)propanoyl)-4-hydroxy-3,3-dimethylpiperidin-4-yl)methyl)-N,N-dimethyl-6-oxo-4-phenyl-1,6-dihydropyridine-3-carboxamide] stands under 500 nM; under `C[C@H](CC1CCCCC1)C(=O)N1CCC(O)(Cn2cc(C(=O)N(C)C)c(Cl)cc2=O)C2(CCCC2)C1` (stereo partly drawn) [Example 144, 4-Chloro-1-((7-((R)-3-cyclohexyl-2-methylpropanoyl)-10-hydroxy-7-azaspiro[4.5]decan-10-yl)methyl)-N,N-dimethyl-6-oxo-1,6-dihydropyridine-3-carboxamide], under 500 nM; under `CN(C)C(=O)c1cn(C[C@]2(O)CCN(C(=O)[C@H](CO)CC3CCC3)CC2(C)C)c(=O)cc1-c1ccccc1` [Example 166, 1-(((S)-1-((S)-3-Cyclobutyl-2-(hydroxymethyl)propanoyl)-4-hydroxy-3,3-dimethylpiperidin-4-yl)methyl)-N,N-dimethyl-6-oxo-4-phenyl-1,6-dihydropyridine-3-carboxamide], under 500 nM.
As for `C[C@H](CC1CCCCC1)C(=O)N1CCC(O)(Cn2cc(C(=O)N(C)C)c(-c3cccc(CO)c3)cc2=O)C2(CCCC2)C1` (stereo partly drawn) [Example 156, 1-((7-((R)-3-Cyclohexyl-2-methylpropanoyl)-10-hydroxy-7-azaspiro[4.5]decan-10-yl)methyl)-4-(3-(hydroxymethyl)phenyl)-N,N-dimethyl-6-oxo-1,6-dihydropyridine-3-carboxamide], the figure is under 500 nM; as for `C[C@H](CC1CCCCC1)C(=O)N1CC[C@@](O)(Cn2cc(C(=O)N(C)C)c(-c3ccccc3F)cc2=O)C2(CCCC2)C1` [Example 226, 1-(((S)-7-((R)-3-Cyclohexyl-2-methylpropanoyl)-10-hydroxy-7-azaspiro[4.5]decan-10-yl)methyl)-4-(2-fluorophenyl)-N,N-dimethyl-6-oxo-1,6-dihydropyridine-3-carboxamide], under 500 nM.
As for `C[C@H](CC1CCCCC1)C(=O)N1CCC(O)(Cn2cc(C(=O)N3CCN(C)CC3)c(-c3ccccc3)cc2=O)C(C)(C)C1` (stereo partly drawn) [Example 170, 1-((1-((R)-3-Cyclohexyl-2-methylpropanoyl)-4-hydroxy-3,3-dimethylpiperidin-4-yl)methyl)-5-(4-methylpiperazine-1-carbonyl)-4-phenylpyridin-2(1H)-one], the figure is under 500 nM; as for `C[C@H](CC1CCC1)C(=O)N1CC[C@@](O)(Cn2cc(C(=O)N3CCNCC3)c(-c3ccccc3)cc2=O)C2(CCCC2)C1` [Example 215, 1-(((S)-7-((R)-3-Cyclobutyl-2-methylpropanoyl)-10-hydroxy-7-azaspiro[4.5]decan-10-yl)methyl)-4-phenyl-5-(piperazine-1-carbonyl)pyridin-2(1H)-one], under 500 nM.
Turning to `C[C@H](CC1CCCCC1)C(=O)N1CC[C@@](O)(Cn2cc(C(=O)N3CCNCC3)c(-c3ccccc3F)cc2=O)C(C)(C)C1` [Example 206, 1-(((S)-1-((R)-3-Cyclohexyl-2-methylpropanoyl)-4-hydroxy-3,3-dimethylpiperidin-4-yl)methyl)-4-(2-fluorophenyl)-5-(piperazine-1-carbonyl)pyridin-2(1 H)-one], the IC50 is under 500 nM.
As for `C[C@H](CC(F)(F)F)C(=O)N1CC[C@@](O)(Cn2cnc(-c3cccc(F)c3)cc2=O)C2(CCCC2)C1` [Example 257, 6-(3-Fluorophenyl)-3-(((S)-10-hydroxy-7-((R)-4,4,4-trifluoro-2-methylbutanoyl)-7-azaspiro[4.5]decan-10-yl)methyl)pyrimidin-4(3H)-one], the figure is under 500 nM; as for `C[C@@H]1CN(C(=O)c2cn(C[C@]3(O)CCN(C(=O)[C@H](C)CC4CCCCC4)CC3(C)C)c(=O)cc2-c2ccccc2)CCN1` [Example 213, 1-(((S)-1-((R)-3-Cyclohexyl-2-methylpropanoyl)-4-hydroxy-3,3-dimethylpiperidin-4-yl)methyl)-5-((R)-3-methylpiperazine-1-carbonyl)-4-phenylpyridin-2(1 H)-one], under 500 nM.
Under `C[C@H](CC(=O)N1CCC(O)(Cn2cnc(-c3ccccc3)cc2=O)C(C)(C)C1)c1ccccc1` (mixture of isomers) [Example 53, 3-(((S)-4-Hydroxy-3,3-dimethyl-1-((R)-3-phenylbutanoyl)piperidin-4-yl)methyl)-6-phenylpyrimidin-4(3H)-one and 3-(((R)-4-hydroxy-3,3-dimethyl-1-((R)-3-phenylbutanoyl)piperidin-4-yl)methyl)-6-phenylpyrimidin-4(3H)-one] stands 500 to 5000 nM; under `C[C@H](CC1CCCCC1)C(=O)N1CCC(O)(Cn2cnc(-c3ccc(CO)cc3)cc2=O)C(C)(C)C1` (stereo partly drawn) [Example 139, 3-((1-((R)-3-Cyclohexyl-2-methylpropanoyl)-4-hydroxy-3,3-dimethylpiperidin-4-yl)methyl)-6-(4-(hydroxymethyl)phenyl)pyrimidin-4(3H)-one], under 500 nM; under `C[C@H](CC1CCC1)C(=O)N1CC[C@@](O)(Cn2cc(C(=O)N(C)C)c(-c3ccccc3F)cc2=O)C2(CCCC2)C1` [Example 222, 1-(((S)-7-((R)-3-Cyclobutyl-2-methylpropanoyl)-10-hydroxy-7-azaspiro[4.5]decan-10-yl)methyl)-4-(2-fluorophenyl)-N,N-dimethyl-6-oxo-1,6-dihydropyridine-3-carboxamide], under 500 nM.
As for `C[C@H](CC1CCCCC1)C(=O)N1CCC(O)(Cn2cc(C(=O)N(C)C)c(-c3ccccc3)cc2=O)C2(CCCCC2)C1` (stereo partly drawn) [Example 237, 1-((2-((R)-3-Cyclohexyl-2-methylpropanoyl)-5-hydroxy-2-azaspiro[5.5]undecan-5-yl)methyl)-N,N-dimethyl-6-oxo-4-phenyl-1,6-dihydropyridine-3-carboxamide], the figure is under 500 nM.
